Results published in publication PMC7005646, “Overcoming resistance to anabolic SARM therapy in experimental cancer cachexia with an HDAC inhibitor” (EMBO Molecular Medicine, 2020).

Columns and labels:
C‐26 tumor‐bearing mice [1] = test: AR‐42 dose–response study in the C‐26 cachexia model; type: in vivo, mouse
Procedure: These studies were performed as previously described (Tseng et al, 2015a) with modifications. Tumors were established in the right flank of CD2F1 mice by subcutaneous injection of C‐26 cells (0.5 × 10^6 cells in 0.1 ml). […] TFM‐4AS‐1 (a potent experimental SARM), DHT, and vehicles were administered by subcutaneous injection.
Therefore the efficacy and associated exposures of reduced doses of AR‐42 were determined. Male CD2F1 mice were stratified by body weight and then randomly assigned into five groups of six animals each. C‐26 tumors were established in four of the groups, while those in the fifth group, serving as tumor‐free controls, were injected with sterile saline. Six days later, animals with palpable tumors were treated with AR‐42 once daily at 10 (n = 5) and 20 mg/kg (n = 6), and every other day at 50 mg/kg (n = 5, the originally described anti‐cachectic dose; Tseng et al, 2015a), or vehicle control (n = 4) for 13 days. Upon sacrifice on study day 18, when the majority of tumor‐bearing control mice met euthanasia criteria, the left gastrocnemius muscle was excised, flash‐frozen in liquid nitrogen, and stored at −80°C for subsequent analyses. Carcass weights were corrected for tumor weight by assuming a tumor density equivalent to water (1 g/cm^3). […] This study was performed as described above with animals treated with AR‐42 once daily at 1, 3, and 10 mg/kg or with vehicle control (n = 8).

C‐26 tumor‐bearing mice [2] = test: Initial AR‐42/GTx‐024 combination study (Study 1), male C‐26 tumor‐bearing mice; type: in vivo, mouse; conditions: Study 1, male, GTx‐024 15 mg/kg, AR‐42 10 mg/kg, or both
serum cytokines = test: Serum cytokine panel (multiplex), terminal samples from Study 2; type: in vivo, mouse
Procedure: This confirmatory study was performed exactly as Study 1 with expanded animal numbers. Tumor‐free control groups were maintained at 6 animals each, whereas 10 animals were included in each of the tumor‐bearing groups. […] Grip strength was measured on study days 0 (baseline) and 16. Due to rapid model progression, this study was terminated on day 17 after only 12 days of treatment.
Serum cytokine panel analyses were performed by a commercial vendor (Eve Technologies, Calgary, Canada) as previously described (Tseng et al, 2015a). Serum interleukin‐6 (IL‐6) was measured using a commercial ELISA kit (R&D Systems, Minneapolis, MN, USA) according to the manufacturer's instructions.

pSTAT3 (Y705) = test: pSTAT3/tSTAT3 Western blot of gastrocnemius muscle; type: in vivo, mouse
Procedure: Western blots from all studies were performed on gastrocnemius muscle from representative animals lysed by Nonidet P‐40 isotonic lysis buffer [50 mM Tris–HCl, pH 7.5, 120 mM NaCl, 1% (v/v) Nonidet P‐40, 1 mM EDTA, 50 mM NaF, 40 mM glycerophosphate, and […] each of protease inhibitors (aprotinin, pepstatin, and leupeptin)]. Equivalent amounts of protein from each sample, as determined by the Bradford assay (Bio‐Rad), were resolved by SDS–PAGE and then transferred (semi‐dry) onto Immobilon nitrocellulose membranes (Millipore, Bellerica, MA). Membranes were washed twice with TBST [Tris‐buffered saline (TBS) containing 0.1% Tween‐20], blocked with 5% non‐fat milk in TBST for 1 h, and then washed an additional three times. Membranes were incubated with specific primary antibody in TBST (1:1,000) at 4°C overnight, washed three times (TBST), and then incubated with appropriate goat anti‐rabbit or anti‐mouse IgG–horseradish peroxidase‐conjugated secondary antibodies (1:5,000) at room temperature (1 h). Following additional washes (TBST), immunoblots were visualized as appropriate by ECL chemiluminescence (Amersham Biosciences, Little Chalfont, United Kingdom) or Duration HRP Chemiluminescence (Alkali Scientific, Florida, United States). Primary antibodies: phospho‐STAT3 (Tyr705) (D3A7) XP® rabbit mAb #9145, STAT3 (124H6) mouse mAb #9139 (Cell Signaling Technology, Danvers, MA); α‐tubulin (B‐7), sc‐5286 (Santa Cruz Biotechnologies, Santa Cruz, CA); androgen receptor (EP670Y), ab52615 (Abcam, Cambridge, MA) and GAPDH (6C5), sc‐32233 (Santa Cruz Biotechnologies, Santa Cruz, CA).

[3] = parameters: method as in Sborov et al, 2017; conditions: patients; ref Sborov et al, 2017; cited from earlier work
tumor‐free mice = tested on: tumor‐free mice; parameters: method as in Tseng et al, 2015a; conditions: ref Tseng et al, 2015a, cited from earlier work
[4] = C‐26 Tumor‐bearing, GTx‐024 15 mg/kg, AR‐42 10 mg/kg, or both, mean ± SD

For `CC(C)[C@H](C(=O)Nc1ccc(C(=O)NO)cc1)c1ccccc1` [AR‐42], the “minimally efficacious dose (anti‐cachectic)” value (C‐26 tumor‐bearing mice [1]; daily oral, 13 days, C‐26 model) was 10 mg/kg, the “effect on C‐26 tumor‐mediated reductions in tumor‐corrected body weight and gastrocnemius mass” value (C‐26 tumor‐bearing mice [1]; lower doses (1, 3 mg/kg daily)) was “not effective” and the “effect on C‐26 tumor‐mediated reductions in tumor‐corrected body weight and gastrocnemius mass” value (C‐26 tumor‐bearing mice [1]; thirteen daily oral doses of 20 or 10 mg/kg) was “ameliorated”. The “terminal body weight corrected for tumor mass” value (C‐26 tumor‐bearing mice [2]; day 18, 13 days daily oral) was 91.2 ± 3.7 % of tumor‐free controls, the terminal gastrocnemius mass (C‐26 tumor‐bearing mice [2]; day 18) was 94.3 ± 1.4 % of tumor‐free controls and the terminal quadriceps mass (C‐26 tumor‐bearing mice [2]; day 18) was 93.2 ± 6.3 % of tumor‐free controls. The “GM‐CSF, serum” value (serum cytokines; [4]) was 18.70 ± 3.77 pg/mL, the “G‐CSF, serum” value (serum cytokines; [4]) was 2782.18 ± 2191.30 pg/mL and the “IL‐6, serum” value (serum cytokines; [4]) was 256.59 ± 183.1 pg/mL. The “IL‐17, serum” value (serum cytokines; [4]) was 1.82 ± 0.85 pg/mL, the “IP‐10, serum” value (serum cytokines; [4]) was 215.35 ± 52.46 pg/mL and the “KC, serum” value (serum cytokines; [4]) was 363.38 ± 200.65 pg/mL. The “LIF, serum” value (serum cytokines; [4]) was 15.79 ± 5.15 pg/mL, the “LIX, serum” value (serum cytokines; [4]) was 2515.38 ± 3119.67 pg/mL and the “M‐CSF, serum” value (serum cytokines; [4]) was 20.21 ± 4.63 pg/mL. For the same molecule, the “effect on circulating cytokine levels” value (serum cytokines; Study 2, 10 mg/kg monotherapy, tumor‐bearing) was “did not significantly reduce circulating levels of any evaluated cytokine”, the pSTAT3 in gastrocnemius (pSTAT3 (Y705); female C‐26 tumor‐bearing mice, Study 3) was “reduced levels of pSTAT3 activation” and the pSTAT3 in gastrocnemius (pSTAT3 (Y705); male C‐26 tumor‐bearing mice, Study 1) was “reduced pSTAT3 but not equally in all animals”. The “well‐tolerated plasma exposure in humans” value [3] was 8.5 µM·h, the “maximally tolerated dose in mice” value (tumor‐free mice; oral gavage every other day) was 50 mg/kg and the “effect on lower limb skeletal muscle masses relative to controls” value (tumor‐free mice; tumor‐free mice, 50 mg/kg every other day) was “no significant effects on lower limb skeletal muscle masses”. For the same molecule, the “reduction in epididymal adipose tissue masses” value (tumor‐free mice; tumor‐free mice, 50 mg/kg oral every other day) was roughly 50%.
